From ChEMBL document CHEMBL5291721, “A preclinical secondary pharmacology resource illuminates target-adverse drug reaction associations of marketed drugs” (Nat Commun, 2023)

How the values were obtained:
[1] = molecular target: T1, Alpha-1A adrenergic receptor (Homo sapiens, UniProt P35348); type: functional, cell-based
T1 sequence (P35348 whole entry): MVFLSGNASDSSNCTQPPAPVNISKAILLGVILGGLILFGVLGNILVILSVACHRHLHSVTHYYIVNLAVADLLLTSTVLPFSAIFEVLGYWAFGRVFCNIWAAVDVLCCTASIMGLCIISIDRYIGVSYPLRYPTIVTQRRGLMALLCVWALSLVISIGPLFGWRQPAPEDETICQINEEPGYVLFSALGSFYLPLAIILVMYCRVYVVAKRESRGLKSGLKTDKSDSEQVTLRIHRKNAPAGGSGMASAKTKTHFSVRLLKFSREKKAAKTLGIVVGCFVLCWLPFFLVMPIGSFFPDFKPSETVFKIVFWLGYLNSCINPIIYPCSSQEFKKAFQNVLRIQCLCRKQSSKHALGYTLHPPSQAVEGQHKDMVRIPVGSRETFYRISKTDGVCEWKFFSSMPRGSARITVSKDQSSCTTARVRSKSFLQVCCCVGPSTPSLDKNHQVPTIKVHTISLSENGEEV

[2] = molecular target: Vasopressin V2 receptor (Homo sapiens, UniProt P30518)
[3] = molecular target: T2, Muscarinic acetylcholine receptor M2 (Homo sapiens, UniProt P08172); type: functional, cell-based
T2 sequence (P08172 whole entry): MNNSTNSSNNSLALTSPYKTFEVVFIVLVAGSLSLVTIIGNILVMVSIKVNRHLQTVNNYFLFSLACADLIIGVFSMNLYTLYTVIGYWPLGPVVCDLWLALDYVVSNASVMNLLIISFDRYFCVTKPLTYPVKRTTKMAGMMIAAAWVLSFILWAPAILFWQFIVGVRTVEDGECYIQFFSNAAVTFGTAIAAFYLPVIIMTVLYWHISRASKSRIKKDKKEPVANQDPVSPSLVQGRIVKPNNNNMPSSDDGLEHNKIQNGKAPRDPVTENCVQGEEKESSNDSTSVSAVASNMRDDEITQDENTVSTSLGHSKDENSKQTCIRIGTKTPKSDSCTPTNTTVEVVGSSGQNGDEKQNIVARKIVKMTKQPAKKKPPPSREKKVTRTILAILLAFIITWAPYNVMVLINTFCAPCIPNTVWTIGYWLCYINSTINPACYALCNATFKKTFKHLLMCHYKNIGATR

[4] = molecular target: T3, Estrogen receptor (Homo sapiens, UniProt P03372)
T3 sequence (P03372 whole entry): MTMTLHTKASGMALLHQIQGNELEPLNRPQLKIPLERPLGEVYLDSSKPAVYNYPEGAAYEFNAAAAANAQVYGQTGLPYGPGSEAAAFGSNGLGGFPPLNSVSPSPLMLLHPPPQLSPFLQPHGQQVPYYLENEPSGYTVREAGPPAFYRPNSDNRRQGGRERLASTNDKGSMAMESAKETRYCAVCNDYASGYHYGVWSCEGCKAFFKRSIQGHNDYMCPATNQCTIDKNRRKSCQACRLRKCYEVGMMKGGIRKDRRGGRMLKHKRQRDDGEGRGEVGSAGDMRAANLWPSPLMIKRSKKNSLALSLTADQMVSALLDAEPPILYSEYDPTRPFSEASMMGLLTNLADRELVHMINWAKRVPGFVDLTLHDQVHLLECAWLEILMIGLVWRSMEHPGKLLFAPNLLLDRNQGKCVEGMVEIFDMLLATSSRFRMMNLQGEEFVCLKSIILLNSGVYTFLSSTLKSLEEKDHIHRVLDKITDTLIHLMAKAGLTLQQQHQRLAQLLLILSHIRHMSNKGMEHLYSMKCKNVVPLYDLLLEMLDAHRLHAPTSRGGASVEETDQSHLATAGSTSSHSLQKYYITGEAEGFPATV

[5] = molecular target: Voltage-gated inwardly rectifying potassium channel KCNH2 (Homo sapiens, UniProt Q12809); type: functional; settings: read-out: AC50
[6] = molecular target: Delta-type opioid receptor (Homo sapiens, UniProt P41143)
[7] = molecular target: T4, Progesterone receptor (Homo sapiens, UniProt P06401); type: functional
T4 sequence (P06401 whole entry): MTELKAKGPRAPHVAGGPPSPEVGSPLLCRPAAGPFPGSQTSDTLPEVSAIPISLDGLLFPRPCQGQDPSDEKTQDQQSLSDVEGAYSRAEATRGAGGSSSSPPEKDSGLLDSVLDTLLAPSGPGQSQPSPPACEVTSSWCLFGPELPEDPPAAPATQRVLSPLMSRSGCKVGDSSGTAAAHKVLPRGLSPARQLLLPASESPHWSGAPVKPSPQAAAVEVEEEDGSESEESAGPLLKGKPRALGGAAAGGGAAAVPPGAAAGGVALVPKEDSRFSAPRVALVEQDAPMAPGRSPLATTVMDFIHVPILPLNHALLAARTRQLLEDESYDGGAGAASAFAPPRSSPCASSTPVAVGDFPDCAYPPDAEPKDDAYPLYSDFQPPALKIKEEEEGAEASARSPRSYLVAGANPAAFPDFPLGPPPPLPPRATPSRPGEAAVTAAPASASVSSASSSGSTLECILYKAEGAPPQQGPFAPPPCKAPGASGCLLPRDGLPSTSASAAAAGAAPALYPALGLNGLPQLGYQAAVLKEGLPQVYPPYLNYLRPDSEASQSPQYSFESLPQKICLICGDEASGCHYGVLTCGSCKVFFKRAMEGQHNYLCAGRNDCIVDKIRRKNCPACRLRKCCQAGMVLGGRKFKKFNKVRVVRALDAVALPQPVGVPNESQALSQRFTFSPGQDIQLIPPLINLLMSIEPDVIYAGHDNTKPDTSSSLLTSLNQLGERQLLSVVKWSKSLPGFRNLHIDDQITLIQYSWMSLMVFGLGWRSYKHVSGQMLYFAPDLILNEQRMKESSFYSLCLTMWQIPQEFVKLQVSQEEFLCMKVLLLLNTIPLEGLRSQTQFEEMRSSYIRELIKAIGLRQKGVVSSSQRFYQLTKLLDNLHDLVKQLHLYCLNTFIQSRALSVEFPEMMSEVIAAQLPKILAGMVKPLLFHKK
Further: assay procedure not described here.

Chain of Voltage-gated inwardly rectifying potassium channel KCNH2 (Q12809 whole entry): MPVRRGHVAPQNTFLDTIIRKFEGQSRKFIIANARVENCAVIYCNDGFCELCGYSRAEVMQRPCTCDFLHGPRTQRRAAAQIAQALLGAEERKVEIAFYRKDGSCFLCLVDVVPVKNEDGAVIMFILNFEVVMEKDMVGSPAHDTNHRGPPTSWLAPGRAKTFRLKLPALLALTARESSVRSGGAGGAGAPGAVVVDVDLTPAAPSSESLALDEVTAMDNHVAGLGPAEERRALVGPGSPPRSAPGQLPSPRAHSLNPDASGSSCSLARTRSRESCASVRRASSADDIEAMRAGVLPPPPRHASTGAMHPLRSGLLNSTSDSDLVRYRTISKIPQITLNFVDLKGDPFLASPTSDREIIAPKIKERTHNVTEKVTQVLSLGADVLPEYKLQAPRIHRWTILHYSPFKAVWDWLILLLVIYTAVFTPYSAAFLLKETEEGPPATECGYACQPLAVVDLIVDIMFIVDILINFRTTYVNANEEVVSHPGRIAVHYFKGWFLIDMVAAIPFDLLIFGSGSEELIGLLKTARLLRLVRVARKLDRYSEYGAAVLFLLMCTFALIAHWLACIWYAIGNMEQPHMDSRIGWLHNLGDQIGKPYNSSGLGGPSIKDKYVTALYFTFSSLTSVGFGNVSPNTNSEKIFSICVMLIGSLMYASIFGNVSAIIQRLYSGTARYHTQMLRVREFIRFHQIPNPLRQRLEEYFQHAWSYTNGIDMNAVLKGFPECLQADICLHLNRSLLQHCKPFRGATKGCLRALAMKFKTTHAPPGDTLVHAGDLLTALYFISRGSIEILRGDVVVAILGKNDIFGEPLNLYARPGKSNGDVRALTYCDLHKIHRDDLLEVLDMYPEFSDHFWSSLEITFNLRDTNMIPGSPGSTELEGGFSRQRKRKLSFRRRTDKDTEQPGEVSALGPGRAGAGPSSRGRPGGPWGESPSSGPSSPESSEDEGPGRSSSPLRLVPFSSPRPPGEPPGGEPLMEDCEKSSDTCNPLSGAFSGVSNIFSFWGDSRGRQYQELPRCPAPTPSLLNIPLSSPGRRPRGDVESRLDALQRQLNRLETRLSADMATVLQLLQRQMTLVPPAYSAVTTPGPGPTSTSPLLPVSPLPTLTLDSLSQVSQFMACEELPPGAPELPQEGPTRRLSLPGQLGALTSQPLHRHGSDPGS
Chain of Delta-type opioid receptor (P41143 whole entry): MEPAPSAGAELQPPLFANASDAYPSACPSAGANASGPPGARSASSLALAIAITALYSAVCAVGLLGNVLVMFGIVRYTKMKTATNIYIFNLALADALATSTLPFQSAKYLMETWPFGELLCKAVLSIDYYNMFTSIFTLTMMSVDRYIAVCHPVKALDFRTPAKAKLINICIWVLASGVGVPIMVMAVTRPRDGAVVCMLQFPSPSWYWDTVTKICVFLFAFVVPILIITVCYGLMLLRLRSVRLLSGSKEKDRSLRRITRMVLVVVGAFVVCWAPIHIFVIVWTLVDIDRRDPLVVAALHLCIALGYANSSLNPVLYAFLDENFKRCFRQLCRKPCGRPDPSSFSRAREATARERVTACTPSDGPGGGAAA
Chain of Vasopressin V2 receptor (P30518 whole entry): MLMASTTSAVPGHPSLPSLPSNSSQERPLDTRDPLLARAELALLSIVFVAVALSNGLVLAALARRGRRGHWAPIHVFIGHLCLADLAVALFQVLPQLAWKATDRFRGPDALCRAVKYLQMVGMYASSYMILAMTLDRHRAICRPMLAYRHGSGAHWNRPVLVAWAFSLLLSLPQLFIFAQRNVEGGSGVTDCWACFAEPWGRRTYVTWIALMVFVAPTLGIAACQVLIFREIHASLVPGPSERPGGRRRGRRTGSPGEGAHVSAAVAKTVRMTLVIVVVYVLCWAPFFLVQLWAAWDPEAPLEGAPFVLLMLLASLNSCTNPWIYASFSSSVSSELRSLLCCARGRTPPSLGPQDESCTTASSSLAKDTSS

SMILES	AC50 [1] [µM]	AC50 [2] [µM]	AC50 [3] [µM]	AC50 [4] [µM]	AC50 [5] [µM]	AC50 [6] [µM]	AC50 [7] [µM]
COc1ccccc1N1CCN(CCCNc2cc(=O)n(C)c(=O)n2C)CC1	> 30	> 30	> 30	> 30	> 30	> 30	> 30
CCOC(=O)[C@H](CCc1ccccc1)N[C@@H](C)C(=O)N1C(=O)N(C)C[C@H]1C(=O)O	> 30	> 30	> 30	> 30	> 30	> 30	> 30
CC=CC(=O)N(CC)c1ccccc1C	> 30	> 10	> 10	> 10	> 30	> 30	> 10
O=C(O)CCCCCCNC1c2ccccc2CCc2ccccc21 [AMINEPTINE]	> 30	> 30	> 30	> 30	> 30	> 30	> 30
COc1ccccc1OCCNCC(O)c1ccc(C)c(S(N)(=O)=O)c1 (configuration not stated) [AMOSULALOL]	0.32	> 30	> 30	> 30	15	> 30	> 30
CCOC(=O)OC(C)OC1=C(C(=O)Nc2ccccn2)N(C)S(=O)(=O)c2ccccc21 (configuration not stated) [AMPIROXICAM]	> 30	> 30	> 30	> 30	> 30	> 30	> 30
C=CCC1(CC(C)C)C(=O)NC(=O)NC1=O [BUTALBITAL]	> 30	> 10	> 10	> 10	> 30	> 30	> 10
CO/N=C(\C(=O)N[C@@H]1C(=O)N2C(C(=O)O)=C(CSc3nnnn3C)CS[C@H]12)c1csc(N)n1 [CEFMENOXIME]	> 30	> 30	> 30	> 30	> 30		1.8
O=C(O)C1=C(CSc2nnnn2CS(=O)(=O)O)CS[C@@H]2[C@H](NC(=O)[C@H](O)c3ccccc3)C(=O)N12 [CEFONICID]	> 30	> 30	> 30	> 30	> 30	> 30	> 30
Nc1nc(/C(=C/CC(=O)O)C(=O)N[C@@H]2C(=O)N3C(C(=O)O)=CCS[C@H]23)cs1 [CEFTIBUTEN]	> 30	> 30	> 30	> 30	> 30	> 30	> 30
CCCCCCOc1ccccc1C(N)=O [EXALAMIDE]	> 30	> 30		> 30	> 30	> 30	> 30
CCC(C(=O)O)c1ccc(N2Cc3ccccc3C2=O)cc1 (configuration not stated) [INDOBUFEN]	> 30	> 30	> 30	> 30	> 30	> 30	> 30
